IC50 data for 44 compounds are collected here from patent publication US12384753B2, “17-beta-hydroxysteroid dehydrogenase type 13 inhibitors and methods of use thereof” (Enanta Pharmaceuticals, Inc., priority 2021, dated 2025).

Each structure is given as a SMILES string.

Chain of Recombinant human HSD17B13 (Q7Z5P4 20-300): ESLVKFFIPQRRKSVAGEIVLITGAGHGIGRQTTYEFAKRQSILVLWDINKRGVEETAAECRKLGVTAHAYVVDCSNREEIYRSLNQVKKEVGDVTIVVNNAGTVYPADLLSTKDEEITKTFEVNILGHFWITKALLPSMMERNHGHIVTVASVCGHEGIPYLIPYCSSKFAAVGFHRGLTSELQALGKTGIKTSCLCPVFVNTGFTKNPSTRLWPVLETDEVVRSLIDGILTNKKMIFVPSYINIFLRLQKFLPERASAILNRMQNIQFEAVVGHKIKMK

The test addresses Recombinant human HSD17B13 (Homo sapiens (Human), UniProt Q7Z5P4). Put plainly: HSD17B13 rapid-fire mass spectrometry assay (RF/MS assay). The format is biochemical. To be noted: inhibition of HSD17B13; LTB4 10 μM, NAD+ 0.5 mM, RT 3 h; IC50 ranges A-E. A digest of the protocol: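 Product 12-oxo-LTB4 and substrate LTB4 quantified by RapidFire triple-quad MS in negative mode, giving percent conversion. Reaction: 80 nM recombinant hHSD17B13, 10 μM LTB4, 0.5 mM NAD+, compound up to 100 μM, pH 7.5, RT, 3 h. Variable-slope fit gave IC50; run in duplicate.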
What is called IC50 is the concentration that gives 50% inhibition. For the compound `COc1cc(C(=O)O)c(F)cc1NS(=O)(=O)c1csc(-c2ccc(C3CCC(C)(C)CC3)c(F)c2)n1` [Example 513], the IC50 was < 100 nM. With `COc1cc(C(=O)O)c(F)cc1NS(=O)(=O)c1csc(C#CC2CCC(C)(C)CC2)n1` [Example 514] the figure was < 100 nM; with `COc1cc(C(=O)O)c(F)cc1NS(=O)(=O)c1csc(-c2ccc(C3=CCC(C)(C)CC3)c(C(F)(F)F)c2)n1` [Example 515], < 100 nM. Take `COc1cc(C(=O)O)c(F)cc1NS(=O)(=O)c1csc(-c2cc(F)c(C3=CCC(C)(C)CC3)c(F)c2)n1` [Example 516]: the IC50 lay within 100 to 500 nM. For `COc1cc(C(=O)O)c(F)cc1NS(=O)(=O)c1csc(-c2cc(F)c(C3CCC(C)(C)CC3)c(F)c2)n1` [Example 517], the IC50 was 100 to 500 nM. With `COc1cc(C(=O)O)c(F)cc1NS(=O)(=O)c1csc(-c2cc(F)c(C3=CCC(C)(C)CC3)cc2F)n1` [Example 518] the figure was 100 to 500 nM; with `COc1cc(C(=O)O)c(F)cc1NS(=O)(=O)c1csc(-c2cc(F)c(C3CCC(C)(C)CC3)cc2F)n1` [Example 519], 100 to 500 nM; with `COc1cc(C(=O)O)c(F)cc1NS(=O)(=O)c1csc(-c2ccc(C3=CCC(C)(C)CC3)c(F)c2F)n1` [Example 520], 100 to 500 nM. With `COc1cc(C(=O)O)c(F)cc1NS(=O)(=O)c1csc(-c2ccc(C3CCC(C)(C)CC3)c(F)c2F)n1` [Example 521] the figure was 100 to 500 nM; with `COc1cc(C(=O)O)c(F)cc1NS(=O)(=O)c1csc(-c2ccc(C3=CCC(C)(C)CC3)cc2C(F)(F)F)n1` [Example 522], < 100 nM; with `COc1cc(C(=O)O)c(F)cc1NS(=O)(=O)c1csc(-c2ccc(C3=CCC(C)(C)CC3)c(OC)c2)n1` [Example 523], < 100 nM. For `COc1cc(C(=O)O)c(F)cc1NS(=O)(=O)c1csc(-c2ccc(C3CCC(C)(C)CC3)cc2C(F)(F)F)n1` [Example 524, 4-((2-(4-(4,4-dimethylcyclohexyl)-2-(trifluoromethyl)phenyl)thiazole)-4-sulfonamido)-2-fluoro-5-methoxybenzoic acid] the value was < 100 nM; for `COc1cc(C(=O)O)c(F)cc1NS(=O)(=O)c1csc(-c2ccc(C3CCC(C)(C)CC3)c(OC)c2)n1` [Example 525], 500 to 1000 nM; for `COc1cc(C(=O)O)c(F)cc1NS(=O)(=O)c1csc(-c2ccc(-c3cccnc3)cc2)n1` [Example 526], 100 to 500 nM. For the compound `COc1cc(C(=O)O)c(F)cc1NS(=O)(=O)c1csc(-c2ccc(C3=CCC(C)(C)CC3)c(C)c2)n1` [Example 527], the IC50 lay in the range of 100 to 500 nM. For `COc1cc(C(=O)O)c(F)cc1NS(=O)(=O)c1csc(-c2ccc(C3CCC(C)(C)CC3)c(C)c2)n1` [Example 528] the value was 100 to 500 nM; for `COc1cc(C(=O)O)c(F)cc1NS(=O)(=O)c1csc(-c2ccc(C3=CCC(C)(C)CC3)c(CO)c2)n1` [Example 529], 100 to 500 nM. Consider `COc1cc(C(=O)O)c(F)cc1NS(=O)(=O)c1csc(-c2ccc(C3=CCC(C)(C)CC3)c(C(N)=O)c2)n1` [Example 530], for which the IC50 lay in the range of 500 to 1000 nM.

`COc1cc(C(=O)O)c(F)cc1NS(=O)(=O)c1csc(-c2ccc(-c3ccccc3O)cc2)n1` [Example 531]: the IC50 fell in the range of 100 to 500 nM. As to `COc1cc(C(=O)O)c(F)cc1NS(=O)(=O)c1csc(-c2ccc([C@]3(CO)CC[C@@H](C(F)(F)F)CC3)cc2)n1` [Example 532], the IC50 is 500 to 1000 nM. With `COc1cc(C(=O)O)c(F)cc1NS(=O)(=O)c1csc(-c2ccc(C3CCC(C)(C)CC3)c(C(N)=O)c2)n1` [Example 533] the figure was 500 to 1000 nM; with `COc1cc(C(=O)O)c(F)cc1NS(=O)(=O)c1csc(-c2ccc(C3CC4CCC(C4)C3)cc2)n1` (centres unmarked) [Example 534], 100 to 500 nM. For `COc1cc(C(=O)O)c(F)cc1NS(=O)(=O)c1csc(-c2ccc(C3CC4C(C3)C4(C)C)cc2)n1` (centres unmarked) [Example 535] the value was < 100 nM.

Regarding `COc1cc(C(=O)O)c(F)cc1NS(=O)(=O)c1csc(-c2ccc(C3=CCC(C)(C)CC3)cc2OC)n1` [Example 536], the IC50 is < 100 nM.

Regarding `COc1cc(C(=O)O)c(F)cc1NS(=O)(=O)c1csc(-c2ccc(C3=CCC(C)(C)CC3)c(OC(F)(F)F)c2)n1` [Example 537], the IC50 is < 100 nM.

As to `COc1cc(C(=O)O)c(F)cc1NS(=O)(=O)c1csc(-c2ccc(C3=CCC(C)(C)CC3)c3[nH]ncc23)n1` [Example 538], the IC50 lay in the range of 100 to 500 nM. With `COc1cc(C(=O)O)c(F)cc1NS(=O)(=O)c1csc(-c2ccc(C3CCC(C)(C)CC3)cc2OC)n1` [Example 539] the figure was < 100 nM. For `COc1cc(C(=O)O)c(F)cc1NS(=O)(=O)c1csc(-c2ccc(C3CCC(C)(C)CC3)c(OC(F)(F)F)c2)n1` [Example 540] the value was 100 to 500 nM. Turning to `COc1cc(C(=O)O)c(F)cc1NS(=O)(=O)c1csc(-c2ccc(C3CCC(C)(C)CC3)c3[nH]ncc23)n1` [Example 541], the IC50 is < 100 nM. For `COc1cc(C(=O)O)c(F)cc1NS(=O)(=O)c1csc(-c2ccc(C3=CCC(C)(C)CC3)cc2OC(F)(F)F)n1` [Example 542] the value was < 100 nM; for `COc1cc(C(=O)O)c(F)cc1NS(=O)(=O)c1csc(-c2ccc(C3CCC(C)(C)CC3)cc2OC(F)(F)F)n1` [Example 543], < 100 nM. For `COc1cc(C(=O)O)c(F)cc1NS(=O)(=O)c1csc(-c2ccc(C3=CCC(C)(C)CC3)cc2C2CC2)n1` [Example 544] the value was 100 to 500 nM. For `COc1cc(C(=O)O)c(F)cc1NS(=O)(=O)c1csc(-c2ccc(C3=CCC(C)(C)CC3)c(OC)c2F)n1` [Example 545] the value was < 100 nM; for `COc1cc(C(=O)O)c(F)cc1NS(=O)(=O)c1csc(-c2ccc(C3=CCC(C)(C)CC3)c(F)c2OC)n1` [Example 546], < 100 nM. Take `COc1cc(C(=O)O)c(F)cc1NS(=O)(=O)c1csc(-c2ccc(C3CCC(C)(C)CC3)cc2C2CC2)n1` [Example 547]: the IC50 lay in the range of 100 to 500 nM. For `COc1cc(C(=O)O)c(F)cc1NS(=O)(=O)c1csc(-c2ccc(C3CCC(C)(C)CC3)c(OC)c2F)n1` [Example 548] the value was < 100 nM. With `COc1cc(C(=O)O)c(F)cc1NS(=O)(=O)c1csc(-c2ccc(C3CCC(C)(C)CC3)c(F)c2OC)n1` [Example 549] the figure was 100 to 500 nM; with `COc1cc(C(=O)O)c(F)cc1NS(=O)(=O)c1csc(-c2ccc(C3CC4CCC3CC4)cc2)n1` (centres unmarked) [Example 550], 100 to 500 nM; with `COc1cc(C(=O)O)c(F)cc1NS(=O)(=O)c1csc(-c2ccc(C3=CCC(C)(C)CC3)nc2)n1` [Example 551], 100 to 500 nM.

With `COc1cc(C(=O)O)c(F)cc1NS(=O)(=O)c1csc(-c2cnc(C3=CCC(C)(C)CC3)c(F)c2)n1` [Example 552], the IC50 was 100 to 500 nM. With `COc1cc(C(=O)O)c(F)cc1NS(=O)(=O)c1csc(-c2ccc(C3CCC(C)(C)CC3)nc2)n1` [Example 553] the figure was 100 to 500 nM; with `COc1cc(C(=O)O)c(F)cc1NS(=O)(=O)c1csc(-c2cnc(C3CCC(C)(C)CC3)c(F)c2)n1` [Example 554], 100 to 500 nM; with `COc1cc(C(=O)O)c(F)cc1NS(=O)(=O)c1csc(-c2ccc(C3=CCC(C)(C)CC3)cc2-c2ccc(F)cc2)n1` [Example 555], 500 to 1000 nM. For `COc1cc(C(=O)O)c(F)cc1NS(=O)(=O)c1csc(-c2ccc(C3=CCC(C)(C)CC3)cc2C)n1` [Example 556] the value was < 100 nM.
